Measurements published in patent publication US9511196B2, “Systems and methods for promoting wound healing” (priority 2009, dated 2016).
Like-named read-outs stand apart in the source and are kept apart here.

Legend:
2nd degree burn wounds = test: Burn wound model: change in burn wound area after gas treatment; type: in vivo, rat; conditions: 1000 ppm NO or 250 ppm CO, 15 minutes four times per day; for effect on burn healing compared to untreated burn wound: 10 days
Experimental: Similar to the rats used for the type I diabetic model, Rats were anesthetized with the mixture of ketamine 50 mg/kg IM and xylazine 5 mg/kg IM administered intraperitoneally. Anesthesia levels were maintained by additional injections of this mixture as needed. Each rat was allowed to breathe spontaneously. Hair was removed from the rats' backs and the backs of the rat were subsequently wiped with 70% ethanol. The standard rat burn model was used in which burns are produced by hot metal used as a heat source. A customized soldering iron was used to cause superficial dermal second-degree burns on. the backs of the rats. […] It was heated to 80° C. and applied to the skin for 10 seconds, which caused second degree burns. Immediately after wounding, the gasket of an exemplary gas delivery system as disclosed herein was bonded to the skin area surrounding each treated wound by means of a thin layer of Skin-Bond® Cement (Smith & Nephew Inc. Largo, Fla. 33773). The animals were then transferred to individual cages for recovery. Rats received an analgesic (Butorphanol 1-2 mg/kg) injected subcutaneously every four hours for a maximum period of 2 days. To prevent dehydration, 1-2 ml of warm sterile saline/100 g of body weight was injected subcutaneously during the recovery period. The treatment procedures described in more detail below were executed in the same way for the burn wound model as the diabetic wound model. After a certain time period, the rats were again anesthetized using the procedure described above and the wounded skin was taken from the backs of these rats for analysis. Then rats were then euthanized with pentothal (150 mg/kg) injected intraperitoneally.
(§1) All gas mixtures were prepared and stored in HandyGrab Tedlar gas sampling bag with capacity of 0.6 liter (Zefon International, St. Petersburg, Fla., cat#HG-PP-06) prior to each treatment. Static mixing with nitrogen as a diluting gas was performed. To prepare nitric oxide mixtures in nitrogen, a sample of 1000 ppm nitric oxide in nitrogen (Airgas Specialty Gases, Chicago, Ill.) was drawn with a 50 cubic centimeters (cc) disposable medical syringe and then transferred to a Tedlar bag through an injection port. Then the appropriate volume of nitrogen (Airgas Inc., Radur, Pa.) was delivered to the bag that was controlled by a Riteflow® flowmeter (Bel-Art Products, Pequannock, N.J.). The same technique was used to prepare carbon monoxide mixtures in nitrogen, but a 1 cc disposable medical syringe was used to dosage pure carbon monoxide (Air Products and Chemicals Inc., Parkersburg, W. Va.). To calculate the concentrations of mixed gases, the following Equation 2 was applied: Cppm=Vc/(Vc+Vd)×10^6·ppm (2) where Vc is the target gas volume and Vd is the dilutant volume.
Once the rats were prepared with a modified gas delivery system in place, 20 cm^3 of nitrogen was purged through whole gas capsule to remove air. Then 20 cm^3 of a therapeutic gas mixture was delivered in a medical syringe to a gas vent, and the gas vent was sealed. The wounds were exposed to gas mixtures for specified period of times (15 minutes to 1 hour). The treatment was repeated four times a day, while the rat was awake and fully ambulatory. Negative control wounds remained uncovered, allowing access of air to the wound site. Positive control wounds were exposed to pure nitrogen, which served as the diluting gas for every mixture prepared. […]

[1] = system: diabetic type I excisional wounds; test: Type I diabetes model: excisional wound contraction after gas treatment; type: in vivo, rat; conditions: for effect on diabetic wound contraction / wound area as % of its initial area / wound size as % of its starting point: 1000 ppm NO or 250 ppm CO, 15 minutes four times per day
Experimental: Male Sprague-Dawley rats (body weight 400-450 g) were used for these studies, were kept in an animal care facility for 48 h at 21° C. in a temperature controlled room with a 12 h light/dark cycle and 30-70% air-changed humidity. Animals were allowed unlimited access to regular chow food and drinking water. Diabetes type I was induced in rats by injection of streptozotocin (STZ) (65 mg/kg in pH 4.5 citrate buffer, IP). To relieve the pain associated with the intraperitoneal streptozotocin injection, rats were first put under deep anesthesia by injecting (ketamine 50 mg/kg IM, xylazine 5 mg/kg, IM). Anesthesia levels were checked by corneal reflex and toe pinch, and sustained by additional injections of the ketamine and xylazine mixture. After 10 days of streptozotocin injections the blood glucose levels were measured to determine if the rats could be considered diabetic. If the blood glucose level was above 300 mg/dL, the rat was considered diabetic. Rats were fasted overnight before the glucose level was measured. After injecting anesthesia, the tip of the tail was sterilized by wiping it with 70% alcohol. Approximately 2 mm of the tail was cut off to withdraw a sample of blood (35 μl), and the tip was compressed for 45-60 seconds to stop the bleeding.
The diabetic rats were then anesthetized (if needed) with a mixture of ketamine (50 mg/kg I.M.) and xylazine (5 mg/kg I.M.) administered intraperitoneally. Once anesthetized, hair was removed from the rats' backs using an electric razor and the backs of the rat were subsequently wiped with a 70% ethyl alcohol swab. On either side of the midline of the rat's back, four excision wounds were made with a sterile about 5 mm in diameter Biopsy Punch (Miltex, Inc. York, Pa. cat#33-35). The resulting wounds were approximately 4 mm deep and were deprived of epidermis, dermis and subcutaneous fat. Immediately after wounding, the gasket of an exemplary gas delivery system as disclosed herein was bonded to the skin area surrounding each treated wound by means of a thin layer of Skin-Bond® Cement (Smith & Nephew Inc. Largo, Fla. 33773).
After the surgery and during the recovery period from anesthesia, rats were turned from side to side to avoid pulmonary edema and to ensure unobstructed breathing. The rats were transferred to cages lined with sterile drape and contained moist food. To minimize any stress associated with pain, the rats were injected subcutaneously with analgesic (Butorphanol 1-2 mg/kg) every four hours for a maximum period of 2 days. Additionally, 1-2 ml of warm sterile saline/100 g of body weight was injected subcutaneously during the recovery period to prevent dehydration. Once the rats were completely awake, they were placed in cages with free access to food and drinking water. During the postoperative care period, rats were monitored for signs of infection, or self inflicted trauma. Additionally food and water intake was monitored. The diabetic rats were subjected to treatment as described below.
as §1, with “To calculate the concentrations of mixed gases, the following Equation 2 was applied: Cppm=Vc/(Vc+Vd)×10^6·ppm (2) where Vc is the target gas volume and Vd is the dilutant volume.” left out

normal excisional wounds = test: Normal excisional wound: wound size after gas treatment; type: in vivo, rat; conditions: 1000 ppm NO or 250 ppm CO, 15 minutes four times per day; for wound area shrunk to % of initial: day 3; for wound size/area as % of its starting point: day 10
Experimental: (§2) Provided methods and apparatus were tested on second degree burn wounds (normal and diabetic), excisional wounds (normal and diabetic), and surgical incisional wounds (normal and diabetic) in rat models. Various treatment protocols were evaluated and dose and time dependent studies were carried out on normal excisional wounds to determine the [NO] and [ONOO^−] release profile using exogenous NO and CO.
as §1
Once the rats were prepared with a modified gas delivery system in place, 20 cm^3 of nitrogen was purged through whole gas capsule to remove air. Then 20 cm^3 of a therapeutic gas mixture was delivered in a medical syringe to a gas vent, and the gas vent was sealed. The wounds were exposed to gas mixtures for specified period of times (15 minutes to 1 hour). The treatment was repeated four times a day, while the rat was awake and fully ambulatory. Negative control wounds remained uncovered, allowing access of air to the wound site. Positive control wounds were exposed to pure nitrogen, which served as the diluting gas for every mixture prepared.
After a specified time interval (1 day, 3 days, 5 days, 7 days, 10 days), rats were again anesthetized with a mixture of ketamine (50 mg/kg I.M.) and xylazine (5 mg/kg I.M.). The gas delivery system was removed by applying few drops of Uni-Solve® (Smith & Nephew Inc. Largo, Fla. 33773), which enabled the removal of the gas delivery system from the skin. Wounds were then removed using a 6 mm in diameter biopsy punch (Miltex, Inc. York, Pa. cat #33-36). Removed wounds were immediately used to measure the NO and ONOO^− release or frozen in liquid nitrogen to be later subjected to hydroxyproline analysis and western blot analysis or embedded in TBS Tissue Frizzing Medium for histological analysis. After the wounded tissue was removed, the rats were euthanized by injecting pentothal at a dose of 150 mg/kg. The rats were then placed in cold storage in an animal care facility.
In FIG. 9, depicted are changes in wound size of a normal excisional wound after treatment with either NO or CO. The photographs were taken at 1, 3, 5, 7 and 10 days after wounding. Normal excisional wounds were treated with either 1000 ppm NO or 250 ppm of CO gas mixtures for 15 minutes four times per day with at least an hour break between treatments. A marker 305 was placed next to each excisional wound to show the size/area of the original wound. […] A very rapid drop in wound area was observed between the 5th and 7th day of healing. […] At day 10, the wound area/size had decreased to 31%+/−5% of its initial starting point. […] At day 3, the area of the NO treated wound had shrunk to 58±4.9%, and the area of gCO treated wound had shrunk to 63±5.7%, whereas the area of untreated wound decreased to 81±6.1%. By day 10 NO treated wounds were much smaller than the untreated wounds and had decreased in size/area to 15%+/−3.8% of its starting point.

[2] = system: burn, excisional and surgical incisional wounds; test: Wound healing time in rat wound models (burn, excisional, incisional; normal and diabetic); type: in vivo; conditions: exogenous gas treatment
Experimental: as §2
It is believed that gasotransmitters NO, O2 and CO delivered locally to a wound site may influence the healing process via changing the NO/ONOO^− balance. […] As a result, there was a high formation of cytotoxic ONOO^−, which can contribute to wound healing impairment. Accordingly, wounds were exposed individually to either gaseous NO or CO using a modified gas delivery system surrounding an injured area. To determine the efficacy of gas therapy in restoring the NO/ONOO^− balance, treated wounds were subjected to NO and ONOO^− measurements. Also, eNOS and iNOS expression levels were determined using western blotting. Collagen formation and maturation, also wound contraction were investigated and compared to results of untreated wounds.

rat model of wound = type: in vivo
Experimental: In vivo efficiency of the provided gas delivery system in the process of accelerating wound healing was also tested. For these experiments, a rat model of wound was studied. Indexes of post-ischemic injury included: morphometric analysis, tissue edema, using a laser rate of wound healing process, level of collagen, and breaking strength.

[3] = inhaled for over 30 min; cited from earlier work
[4] = about 50-1000 ppm NO, about 50-250 ppm CO, about 100% O2

Row | Compound | effect on burn healing compared to untreated burn wound (2nd degree burn wounds) | increase of burn wound area (2nd degree burn wounds; day 10) | effect on diabetic wound contraction [1] | wound area as % of its initial area ([1]; day 5) | wound size as % of its starting point ([1]; day 10) | effect on normal excisional wound contraction (normal excisional wounds) | wound area shrunk to % of initial (normal excisional wounds) | wound size/area as % of its starting point (normal excisional wounds) | decreased wound healing time (versus control, untreated) [2] | wound healing in a single gas treatment (rat model of wound; [4]) | concentration believed to be dangerous when inhaled [3] | wound healing in a single gas treatment (rat model of wound; rat, in vivo) | increase of burn wound area (2nd degree burn wounds; day 3) | wound area as % of its initial area ([1]; day 7) | size difference between treated and untreated diabetic excisional wounds ([1]; day 10)
1 | [C-]#[O+] [CO, carbon monoxide] | reduced swelling and accelerated burn healing process | roughly 67.1%+/−3.5 | some influence on wound contraction | 82.6±3.7% | 41.4%+/−2.8 | accelerated wound contraction and resulted in a significant decrease in wound size | 63±5.7% | 22.2%+/−3.3 | at least 20% | good results | higher than 1500 ppm | – | – | – | –
2 | O=O [O2, Oxygen] | – | – | – | – | – | – | – | – | – | – | – | good results | – | – | –
3 | [N]=O [NO, nitric oxide] | reduced swelling and accelerated burn healing process | roughly 58.0%+/−3.1 | accelerated wound contraction and stimulated wound repair | – | 29.8%+/−2.5 | accelerated wound contraction and resulted in a significant decrease in wound size | 58±4.9% | 15%+/−3.8 | 30-50% | good results | > 500 ppm | – | 76.3±4.2% | 57.8±3.1% | ~17%
